Results on one substance are retold here after PMC10602061 (Research Square, 2023).

Data set [1] relates to 4T1 cells. The data set is described as follows: xCELLigence real-time cell viability assay (RTCA). The format is cell-based, murine. Particulars: serum free media, representative of N = 3. The method, then: 3,000 cells were seeded in the wells of an xCELLigence RTCA E-plate 16 (Agilent, Santa Clara, CA). After the cells adhered to the plate, the media was replaced with serum free media, and the cells were treated with CKS1 at the indicated concentrations. The viability of the cells was monitored using the xCELLigence RTCA analyzer (Agilent).

Data set [2] deals with NIH/3T3 normal fibroblasts. Description: LDH release (CyQUANT LDH cytotoxicity assay). The class given is cell-based, murine. To be noted: NIH/3T3 fibroblasts, indicated concentration of CKS1, 6 hours; N = 3. (LDH in the medium is a marker of cell lysis.)
Protocol: (§5) 1.0 × 10^4 cells were seeded in a 96-well plate and incubated overnight. The cells were washed once, and the medium was replaced with serum free media. Cells were treated with CKS1 for the indicated time and concentration. CyQUANT LDH cytotoxicity assay (Thermo Fisher Scientific) was used following the manufacturer’s instructions to measure the release of LDH. LDH release was normalized to the amount of LDH released from cells treated with lysis buffer.
For data set [3], the system named is human umbilical vein endothelial cells (HUVECs). The data set is described as follows: LDH release (CyQUANT LDH cytotoxicity assay). The format is cell-based. To be noted: indicated concentration of CKS1, 6 hours, N = 3.
Protocol: as §5
Data set [4] has as its system 4T1 cells. Description: Transmission electron microscopy of cell morphology. The class given is cell-based, murine. Particulars: 100 μM CKS1, 30 minutes. The method, then:
Samples were fixed in 2.5% glutaraldehyde, 3 mM MgCl2 in 0.1 M sodium cacodylate buffer, pH 7.2 overnight at 4°C. After buffer rinse, samples were postfixed in 2% osmium tetroxide in 0.1 M sodium cacodylate for at least one hour (no more than two) on ice in the dark. After osmium, samples were rinsed in 0.1 M Maleate buffer (pH 6.2), followed by uranyl acetate in 0.1 M Maleate (0.22 μm filtered, 1 h, dark), dehydrated in a graded series of ethanol and embedded in Epon (PolySci) resin. Samples were polymerized at 60°C overnight. Thin sections, 60 to 90 nm, were cut with a diamond knife on a Leica UCT ultramicrotome and picked up with 2×1 mm Formvar copper slot grids. Grids were stained with 2% uranyl acetate (aq.) followed by lead citrate and observed with a Hitachi 7600 TEM at 80 kV. Images were captured with an AMT CCD XR80 (8-megapixel camera - side mount AMT XR80 – high-resolution highspeed camera).

Data set [5] relates to 4T1 cells. Description: Fluorescence live cell imaging, calcein-AM stained cytosol. The class given is cell-based, murine. Particulars: 100 μM CKS1, live cell imaging. The method, then:
(§1) Fluorescence labeling of cells was performed by seeding 5.0 × 10^4 4T1 cells in a 35mm dish on a collagen-coated No. 1.5 coverslip with a 14 mm glass diameter (MatTek, Ashland, MA). After overnight incubation, the cells were washed once with serum free media and replaced with fresh serum free media. For cell membrane labeling, NR12S (R&D Systems, Minneapolis, MN, #7509) was added at a final concentration of 0.3 μM and incubated for 30 minutes. For cell cytosol labeling, Calcein-AM (Thermo Fisher Scientific, C1430) was added at a final concentration of 5 μg/mL and incubated for 10 minutes. For mitochondrial membrane labeling, JC-1 (Thermo Fisher Scientific, T3168) was added at a final concentration of 10 μg/mL and incubated for 10 minutes. For nuclear staining, Hoechst 33342 (Cell Signaling Technology, #4082) was added at a final concentration of 5 μg/mL and incubated for 10 minutes.
(§2) Cells were imaged on either a Zeiss LSM 700 or a 3i spinning disk confocal microscope. Samples were imaged with optimized microscope settings. Z-stack, time-lapse, or multi-channel acquisition settings were adjusted based on the experimental requirements. Images were then acquired with the appropriate excitation and emission wavelengths for each fluorophore.
(§3) Image analysis was performed using Fiji software. For each image/video, the brightness and the contrast were adjusted. […]

Data set [6] has as its system 4T1 cells. Description: JC-1 mitochondrial membrane potential imaging. To be noted: 100 μM CKS1, live cell imaging, 25 cells, representative of N = 3. The class given is cell-based, murine. The method, then:
as §1, §2, §3

The test system of a further data set is caspase-3 in 4T1 cells. Description: Caspase-3 activity assay in cell lysate. The format is cell-based, murine. To be noted: 100 μM CKS1, indicated time, fluorescence divided by protein concentration, N = 3. The method, then:
1.0 × 10^4 4T1 cells were seeded in 96-well plates and incubated overnight. After CKS1 treatment, the cells were lysed using lysis buffer (Cell Signaling Technology, #7018). The activity of caspase-3 in the cell lysate was quantified using the caspase-3 activity assay kit (Cell Signaling Technology, #5723) following the manufacturer’s instructions. Briefly, the cell lysate was incubated with a substrate of caspase-3 which was designed to emit fluorescence when cleaved. After incubation, the fluorescence was measured using a plate reader. The protein concentration of the cell lysate was quantified using the DC protein assay kit (Bio-Rad, Hercules, CA). The caspase-3 activity was divided by the protein concentration to obtain the caspase-3 activity per μg/mL protein in the cell lysate.

In another data set the test system is glioma. To be noted: glioma model; cited from earlier work. The source says:
(§4) Chemokinostatin-1 (CKS1) is a 24-mer peptide originally discovered as an anti-angiogenic peptide. Karagiannis and Popel developed a computational method to identify anti-angiogenic sequences contained in the human proteome and discovered common sequences conserved within protein domains contained in angiogenesis-related proteins. CKS1 is derived from a sequence shared in the CXC chemokine family.

Data set [7] has as its system triple-negative breast cancer (TNBC). Particulars: triple-negative breast cancer (TNBC) model; cited from earlier work.
Text: as §4

Ends that are not written are not given here.

Take “NGRKACLNPASPIVKKIIEKMLNS-NH2 [CKS1, Chemokinostatin-1]”: in the data set on 4T1 cells [1] (4T1 cells, 3,000 cells per well), the “Time after treatment at which cell death (reduction in cell index) was observed” value is ≤ 1 h. For the same substance, the “Dose dependence of cell death (reduction in cell index)” value with 4T1 cells [1] (4T1 cells) was “dose-dependent”. The “Cell death (release of LDH) in non-cancerous cells” value in data set [2] and in data set [3] was “did not induce cell death” throughout. The “Cell membrane integrity by electron microscopy” value in the data set on 4T1 cells [4] is reported as “ruptured”. Further, in the data set on 4T1 cells [4], the “Nuclear membrane integrity by electron microscopy” value is recorded as “not ruptured”. Moreover, the “Events after treatment in calcein-AM stained cells” value in the data set with 4T1 cells [5] is on record as “influx of the surrounding media into the cells”. Further, the “Mitochondrial membrane potential (JC-1 green/red fluorescence)” value with 4T1 cells [6] is recorded as “rapidly diminishes the mitochondrial membrane potential”. In the data set with caspase-3 in 4T1 cells, the “Activity of caspase-3” value is given as “increased”. Moreover, the “Suppression of tumor growth” value (in the data set with glioma; in data set [7]) was “efficacy in suppressing tumor growth was demonstrated” throughout.
